Results from patent US9394268B2, “(E)-1-(5-methoxy-2,2-dimethyl-2H-chromen-8-yl)-3-(4-methoxyphenyl)prop-2-en-1-one and analogs thereof, as well as preparation method and use thereof” (Sichuan University, priority 2012, dated 2016).

How the values were obtained:
Assay type in all cases: cell-based
K562 = assay: Cell proliferative assay (MTT), K562; details: Homo sapiens, 72 h incubation, read-out: IC50s K562
Experimental: (§1) The synthesized compounds were evaluated for their cytotoxin activity against suspended tumor cells. These cells were seeded on 96-well plates and incubated for 24 h. Selected compounds were added at various doses and incubated for 72 h, MTT was then added, and the absorbance was measured at a wavelength of 590 nm. IC50 values are expressed as the mean±SEM from the dose-response curves of at least three independent experiments.

A549 = assay: Cell proliferative assay (MTT), A549; details: Homo sapiens, 72 h incubation, read-out: IC50s A549
Experimental: as §1

HepG2 = assay: Cell proliferative assay (MTT), HepG2; details: Homo sapiens, 72 h incubation, read-out: IC50s HepG2
Experimental: as §1

A375 = assay: Cell proliferative assay (MTT), A375; details: Homo sapiens, A-375, 72 h incubation, read-out: IC50s A375
Experimental: as §1

SMMC-7221 = assay: Cell proliferative assay (MTT), SMMC-7221; details: 72 h incubation, read-out: IC50s SMMC-7221
Experimental: as §1

LO2 = assay: Cell proliferative assay (MTT), LO2; details: Homo sapiens, L02, 72 h incubation, read-out: IC50s LO2
Experimental: as §1

| Structure (SMILES) | IC50 (K562) | IC50 (A549) | IC50 (HepG2) | IC50 (A375) | IC50 (SMMC-7221) | IC50 (LO2) |
| --- | --- | --- | --- | --- | --- | --- |
| COc1ccc(/C=C/C(=O)c2ccc(OC)c3c2OC(C)(C)C=C3)cc1OCCN1CCOCC1 [SKLBC-57, (E)-1-(5-methoxy-2,2-dimethyl-2H-chromen-8-yl)-3-(4-methoxy-3-(2-morpholinoethoxy)phenyl)prop-2-en-1-one] | > 10000 nM | > 10000 nM | > 10000 nM | > 10000 nM | > 10000 nM | > 20000 nM |
| COc1ccc(/C=C/C(=O)c2ccc(OC)c3c2OC(C)(C)C=C3)cc1OCCO [SKLBC-58, (E)-3-(3-(2-hydroxyethoxy)-4-methoxyphenyl)-1-(5-methoxy-2,2-dimethyl-2H-chromen-8-yl)prop-2-en-1-one] | 500 nM | 580 nM | 226 nM | 670 nM | 1320 nM | > 10000 nM |
| COc1ccc(/C=C/C(=O)c2ccc(OC)c3c2OC(C)(C)C=C3)cc1OCCN1CCCC1 [SKLBC-59, (E)-1-(5-methoxy-2,2-dimethyl-2H-chromen-8-yl)-3-(4-methoxy-3-(2-(pyrrolidin-1-yl)ethoxy)phenyl)prop-2-en-1-one] | > 10000 nM | > 10000 nM | > 10000 nM | > 10000 nM | > 10000 nM | > 20000 nM |
| COc1ccc(/C=C/C(=O)c2ccc(OC)c3c2OC(C)(C)C=C3)cc1OCCN1CCCCC1 [SKLBC-60, (E)-1-(5-methoxy-2,2-dimethyl-2H-chromen-8-yl)-3-(4-methoxy-3-(2-(piperidin-1-yl)ethoxy)phenyl)prop-2-en-1-one] | > 10000 nM | > 10000 nM | > 10000 nM | > 10000 nM | > 10000 nM | > 20000 nM |
| COc1ccc(/C=C/C(=O)c2ccc(OC)c3c2OC(C)(C)C=C3)cc1OCCCN(C)C [SKLBC-61, (E)-3-(3-(3-(dimethylamino)propoxy)-4-methoxyphenyl)-1-(5-methoxy-2,2-dimethyl-2H-chromen-8-yl)prop-2-en-1-one] | 580 nM | 440 nM | 440 nM | 1050 nM | 1140 nM | > 10000 nM |
| COc1ccc(/C=C/C(=O)c2ccc(OC)c3c2OC(C)(C)C=C3)cc1OC(=O)CCCc1ccc(N(CCCl)CCCl)cc1 [SKLBC-65, (E)-2-methoxy-5-(3-(5-methoxy-2,2-dimethyl-2H-chromen-8-yl)-3-oxoprop-1-en-1-yl)phenyl 4-(4-(bis(2-chloroethyl)amino)phenyl)butanoate] | 600 nM | 550 nM | 2100 nM | 3800 nM | 980 nM | > 10000 nM |
| COc1ccc(/C=C/C(=O)c2ccc(OC)c3c2OC(C)(C)C=C3)cc1OC(=O)Cc1ccc(Cl)c(Cl)c1 [SKLBC-67, (E)-2-methoxy-5-(3-(5-methoxy-2,2-dimethyl-2H-chromen-8-yl)-3-oxoprop-1-en-1-yl)phenyl 2-(3,4-dichlorophenyl)acetate] | 430 nM | 860 nM | 195 nM | 105 nM | 1900 nM | 10000 nM |
| COc1ccc(/C=C/C(=O)c2ccc(OC)c3c2OC(C)(C)C=C3)cc1OC(=O)c1ccco1 [SKLBC-68, (E)-2-methoxy-5-(3-(5-methoxy-2,2-dimethyl-2H-chromen-8-yl)-3-oxoprop-1-en-1-yl)phenyl furan-2-carboxylate] | 245 nM | 800 nM | 68 nM | 680 nM | 1620 nM | > 10000 nM |
| COc1ccc(/C=C/C(=O)c2ccc(OC)c3c2OC(C)(C)C=C3)cc1OS(=O)(=O)c1ccc(C)cc1 [SKLBC-69, (E)-2-methoxy-5-(3-(5-methoxy-2,2-dimethyl-2H-chromen-8-yl)-3-oxoprop-1-en-1-yl)phenyl 4-methylbenzenesulfonate] | 7850 nM | 8600 nM | 3600 nM | 2400 nM | 9200 nM | > 10000 nM |
| COc1ccc(/C=C/C(=O)c2ccc(OC)c3c2OC(C)(C)C=C3)cc1OS(=O)(=O)Cc1ccccc1 [SKLBC-70, (E)-2-methoxy-5-(3-(5-methoxy-2,2-dimethyl-2H-chromen-8-yl)-3-oxoprop-1-en-1-yl)phenyl phenylmethanesulfonate] | > 10000 nM | > 10000 nM | > 10000 nM | > 10000 nM | > 10000 nM | > 10000 nM |

Second part, led by results:

| IC50 (K562) | IC50 (A549) | IC50 (HepG2) | IC50 (A375) | IC50 (SMMC-7221) | Structure (SMILES) | IC50 (LO2) |
| --- | --- | --- | --- | --- | --- | --- |
| 620 nM | 1200 nM | 580 nM | 2200 nM | 870 nM | COc1ccc(/C=C/C(=O)c2ccc(OC)c3c2OC(C)(C)C=C3)cc1OCC=C(C)C [SKLBC-71, (E)-1-(5-methoxy-2,2-dimethyl-2H-chromen-8-yl)-3-(4-methoxy-3-((3-methylbut-2-en-1-yl)oxy)phenyl)prop-2-en-1-one] | > 10000 nM |
| > 10000 nM | > 10000 nM | > 10000 nM | > 10000 nM | > 10000 nM | C=CCOc1cc(/C=C/C(=O)c2ccc(OC)c3c2OC(C)(C)C=C3)ccc1OC [SKLBC-72, (E)-3-(3-(allyloxy)-4-methoxyphenyl)-1-(5-methoxy-2,2-dimethyl-2H-chromen-8-yl)prop-2-en-1-one] | > 20000 nM |
| > 10000 nM | > 10000 nM | > 10000 nM | > 10000 nM | > 10000 nM | C#CCOc1cc(/C=C/C(=O)c2ccc(OC)c3c2OC(C)(C)C=C3)ccc1OC [SKLBC-73, (E)-1-(5-methoxy-2,2-dimethyl-2H-chromen-8-yl)-3-(4-methoxy-3-(prop-2-yn-1-yloxy)phenyl)prop-2-en-1-one] | > 20000 nM |
| 202 nM | 226 nM | 90 nM | 245 nM | 2740 nM | COc1ccc(/C=C/C(=O)c2ccc(OC)c3c2OC(C)(C)C=C3)cc1OC(=O)CCl [SKLBC-74, (E)-2-methoxy-5-(3-(5-methoxy-2,2-dimethyl-2H-chromen-8-yl)-3-oxoprop-1-en-1-yl)phenyl 2-chloroacetate] | > 10000 nM |
| 295 nM | 490 nM | 60 nM | 190 nM | 1160 nM | C=CC(=O)Oc1cc(/C=C/C(=O)c2ccc(OC)c3c2OC(C)(C)C=C3)ccc1OC [SKLBC-75, (E)-2-methoxy-5-(3-(5-methoxy-2,2-dimethyl-2H-chromen-8-yl)-3-oxoprop-1-en-1-yl)phenyl acrylate] | > 10000 nM |
| 9240 nM | > 10000 nM | 9000 nM | > 10000 nM | > 10000 nM | COc1ccc(/C=C/C(=O)c2ccc(OC)c3c2OC(C)(C)C=C3)cc1OS(C)(=O)=O [SKLBC-77, (E)-2-methoxy-5-(3-(5-methoxy-2,2-dimethyl-2H-chromen-8-yl)-3-oxoprop-1-en-1-yl)phenyl methanesulfonate] | > 10000 nM |
| 2830 nM | 6400 nM | 2520 nM | 1060 nM | > 10000 nM | COc1ccc(/C=C/C(=O)c2ccc(OC)c3c2OC(C)(C)C=C3)cc1OC(=O)C12CC3CC(CC(C3)C1)C2 [SKLBC-78] | 5580 nM |
| 240 nM | 1180 nM | 90 nM | 378 nM | 1030 nM | CCCCC(=O)Oc1cc(/C=C/C(=O)c2ccc(OC)c3c2OC(C)(C)C=C3)ccc1OC [SKLBC-79, (E)-2-methoxy-5-(3-(5-methoxy-2,2-dimethyl-2H-chromen-8-yl)-3-oxoprop-1-en-1-yl)phenyl pentanoate] | > 10000 nM |
| 410 nM | 1320 nM | 118 nM | 382 nM | 1440 nM | COc1ccc(/C=C/C(=O)c2ccc(OC)c3c2OC(C)(C)C=C3)cc1OC(=O)C1CC1 [SKLBC-80, (E)-2-methoxy-5-(3-(5-methoxy-2,2-dimethyl-2H-chromen-8-yl)-3-oxoprop-1-en-1-yl)phenyl cyclopropanecarboxylate] | > 10000 nM |
| 570 nM | 980 nM | 150 nM | 505 nM | 2630 nM | COc1ccc(/C=C/C(=O)c2ccc(OC)c3c2OC(C)(C)C=C3)cc1OC(=O)C(C)C [SKLBC-81, (E)-2-methoxy-5-(3-(5-methoxy-2,2-dimethyl-2H-chromen-8-yl)-3-oxoprop-1-en-1-yl)phenyl isobutyrate] | > 10000 nM |
| > 10000 nM | > 10000 nM | > 10000 nM | > 10000 nM | > 10000 nM | COc1ccc(/C=C/C(=O)c2ccc(OC)c3c2OC(C)(C)C=C3)cc1[N+](=O)[O-] [SKLBC-82, (E)-1-(5-methoxy-2,2-dimethyl-2H-chromen-8-yl)-3-(4-methoxy-3-nitrophenyl)prop-2-en-1-one] | > 20000 nM |
| > 10000 nM | > 10000 nM | > 10000 nM | > 10000 nM | > 10000 nM | COc1ccc(/C=C/C(=O)c2ccc(OC)c3c2OC(C)(C)C=C3)cc1NO [SKLBC-84, (E)-3-(3-(hydroxyamino)-4-methoxyphenyl)-1-(5-methoxy-2,2-dimethyl-2H-chromen-8-yl)prop-2-en-1-one] | > 20000 nM |
| > 10000 nM | > 10000 nM | > 10000 nM | > 10000 nM | > 10000 nM | CNc1cc(/C=C/C(=O)c2ccc(OC)c3c2OC(C)(C)C=C3)ccc1OC [SKLBC-85, (E)-1-(5-methoxy-2,2-dimethyl-2H-chromen-8-yl)-3-(4-methoxy-3-(methylamino)phenyl)prop-2-en-1-one] | > 20000 nM |
